According to ChEMBL document CHEMBL1201862, “PubChem BioAssay data set” (2004):
Activity calls are given as the source filed them.

Key:
[1] = target: Dual specificity tyrosine-phosphorylation-regulated kinase 1A (Rattus norvegicus, UniProt Q63470); type: biochemical, Homo sapiens
[2] = target: Induced myeloid leukemia cell differentiation protein Mcl-1 (Homo sapiens, UniProt Q07820); type: functional
[3] = target: T1, Rac GTPase-activating protein 1 (Homo sapiens, UniProt Q9H0H5); experiment: MgcRacGAP GTPase-activating activity inhibitors, confirmation, biochemical, ADP Hunter fluorescence, primary and confirmatory (AID 624330); type: functional
T1 sequence (Q9H0H5 whole entry): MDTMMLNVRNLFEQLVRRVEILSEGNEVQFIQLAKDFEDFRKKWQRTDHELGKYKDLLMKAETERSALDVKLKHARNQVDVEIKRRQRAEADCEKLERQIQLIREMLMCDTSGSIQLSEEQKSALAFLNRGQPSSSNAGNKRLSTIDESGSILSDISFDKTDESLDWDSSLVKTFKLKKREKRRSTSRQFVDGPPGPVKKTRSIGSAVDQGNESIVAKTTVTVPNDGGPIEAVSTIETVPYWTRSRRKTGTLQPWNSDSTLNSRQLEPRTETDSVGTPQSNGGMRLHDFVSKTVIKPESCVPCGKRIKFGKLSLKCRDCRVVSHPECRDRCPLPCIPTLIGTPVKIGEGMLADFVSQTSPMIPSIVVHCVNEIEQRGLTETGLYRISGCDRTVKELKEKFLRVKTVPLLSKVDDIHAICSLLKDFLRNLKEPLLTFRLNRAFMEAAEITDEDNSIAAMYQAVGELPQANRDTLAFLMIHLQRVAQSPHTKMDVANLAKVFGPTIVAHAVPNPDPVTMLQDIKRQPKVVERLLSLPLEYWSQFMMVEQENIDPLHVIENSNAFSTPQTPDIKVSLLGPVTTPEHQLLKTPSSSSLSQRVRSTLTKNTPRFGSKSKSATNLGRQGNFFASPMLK

cells [4] = type: functional, cell-based
cells [5] = type: functional, cell-based; remark: listed apart in the source
Vero = experiment: cells; type: functional; settings: Chlorocebus sabaeus
[6] = system: Streptococcus sp. 'group A'; experiment: growth inhibition of control SK(-) GAS strain, dose response, counter-screen for streptokinase expression inhibitor project, luminescence, kanamycin, BacTiterGlo, confirmation (AID 1900); type: functional, organism-based
Streptokinase A = target: T2, Streptokinase A (Streptococcus pyogenes serotype M1, UniProt P10520); experiment: S. pyogenes streptokinase expression inhibitors, potency, dose response, plasminogen activation absorbance, OD405 (AID 1914); type: functional, Streptococcus pyogenes M1 GAS;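 also: secreted streptokinase activity via plasminogen activation per viability signal from cell pellet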
T2 sequence (P10520 whole entry): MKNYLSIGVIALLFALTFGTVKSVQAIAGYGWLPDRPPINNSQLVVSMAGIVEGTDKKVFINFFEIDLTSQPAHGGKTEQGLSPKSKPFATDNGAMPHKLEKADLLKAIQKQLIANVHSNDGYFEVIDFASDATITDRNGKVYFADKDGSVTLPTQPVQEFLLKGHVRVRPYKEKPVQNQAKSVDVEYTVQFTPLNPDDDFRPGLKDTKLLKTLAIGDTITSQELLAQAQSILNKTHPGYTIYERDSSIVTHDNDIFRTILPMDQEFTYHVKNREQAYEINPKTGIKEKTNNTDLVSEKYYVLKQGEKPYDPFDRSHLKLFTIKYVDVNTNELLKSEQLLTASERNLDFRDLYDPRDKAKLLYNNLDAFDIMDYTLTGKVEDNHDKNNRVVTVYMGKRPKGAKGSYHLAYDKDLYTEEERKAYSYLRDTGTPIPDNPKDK

Streptococcus = experiment: Group A Streptococcus viability loss, dose response, counter-screen for streptokinase expression inhibitor project, luminescence, BacTiterGlo (AID 1915); type: functional, organism-based;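 also: potency for reduction of bacterial viability or growth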
[7] = intracellular Trypanosoma cruzi inhibitors in host cells – cell-based, plate reader, cherry-pick samples, set 3, dose response (AID 651818); type: functional;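 also: compounds incubated with infected cells for about four days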
[8] = target: T3, Corticotropin-releasing factor receptor 2/Corticotropin-releasing factor-binding protein (Homo sapiens, UniProt P24387+Q13324); experiment: Dose Response confirmation of uHTS hits for small molecule antagonists of the CRF-binding protein and CRF-R2 receptor complex.; type: functional; settings: read-out: IC50_Mean
T3 sequence (Q13324 whole entry): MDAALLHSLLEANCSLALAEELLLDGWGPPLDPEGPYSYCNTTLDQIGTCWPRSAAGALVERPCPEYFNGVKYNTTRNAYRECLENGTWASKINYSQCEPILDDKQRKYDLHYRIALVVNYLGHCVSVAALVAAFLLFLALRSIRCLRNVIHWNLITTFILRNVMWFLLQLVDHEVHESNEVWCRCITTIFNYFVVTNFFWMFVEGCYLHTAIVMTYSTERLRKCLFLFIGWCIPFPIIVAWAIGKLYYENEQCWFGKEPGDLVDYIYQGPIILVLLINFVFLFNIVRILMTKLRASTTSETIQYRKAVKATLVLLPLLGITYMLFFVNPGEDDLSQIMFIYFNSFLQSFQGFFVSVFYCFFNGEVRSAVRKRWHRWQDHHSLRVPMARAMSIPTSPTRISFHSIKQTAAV
T3 sequence (P24387 whole entry): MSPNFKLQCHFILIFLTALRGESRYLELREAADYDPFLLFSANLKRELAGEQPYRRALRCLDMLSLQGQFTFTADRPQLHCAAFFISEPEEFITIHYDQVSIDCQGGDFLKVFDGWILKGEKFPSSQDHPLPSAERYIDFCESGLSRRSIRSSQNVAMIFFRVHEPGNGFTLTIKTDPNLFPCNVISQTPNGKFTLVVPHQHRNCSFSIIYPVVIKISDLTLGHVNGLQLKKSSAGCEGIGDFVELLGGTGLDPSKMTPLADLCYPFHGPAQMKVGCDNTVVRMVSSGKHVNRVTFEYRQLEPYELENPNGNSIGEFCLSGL

[9] = target: T3, Corticotropin-releasing factor receptor 2/Corticotropin-releasing factor-binding protein; experiment: activators of CRF receptor 2 with binding protein – uHTS hits, confirmation (AID 602473); type: functional; settings: read-out: EC50_Mean
Fatty acid synthase [10] = target: T4, Fatty acid synthase (Homo sapiens, UniProt P49327); experiment: FAS thioesterase domain inhibitors, dose response, biochemical, endpoint fluorescence intensity, uHTS hits (AID 624327); type: functional;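 also: fluorescence from hydrolysis of an O-methyl fluorescein acyl ester substrate by the enzyme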
Fatty acid synthase [11] = target: T4, Fatty acid synthase; experiment: FAS thioesterase domain inhibitors, dose response, biochemical, kinetic fluorescence intensity (AID 624326); type: functional;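 also: rate of fluorescence rise from hydrolysis of a fluorogenic O-methyl fluorescein ester substrate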
[12] = target: T5, Heat shock factor protein 1 (Mus musculus, UniProt P38532); experiment: HSF1 potentiators in luciferase reporter cells, confirmation, cell-based, NIH3T3, luminescence, dose retest (AID 435004); type: functional;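 also: stress induced by proteasome inhibitor MG132 added 30 min after compound; luciferase reporter driven by HSF1 response element in NIH3T3 cells; actives raise luminescence as potentiators of the MG132 stress response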
T5 sequence (P38532 whole entry): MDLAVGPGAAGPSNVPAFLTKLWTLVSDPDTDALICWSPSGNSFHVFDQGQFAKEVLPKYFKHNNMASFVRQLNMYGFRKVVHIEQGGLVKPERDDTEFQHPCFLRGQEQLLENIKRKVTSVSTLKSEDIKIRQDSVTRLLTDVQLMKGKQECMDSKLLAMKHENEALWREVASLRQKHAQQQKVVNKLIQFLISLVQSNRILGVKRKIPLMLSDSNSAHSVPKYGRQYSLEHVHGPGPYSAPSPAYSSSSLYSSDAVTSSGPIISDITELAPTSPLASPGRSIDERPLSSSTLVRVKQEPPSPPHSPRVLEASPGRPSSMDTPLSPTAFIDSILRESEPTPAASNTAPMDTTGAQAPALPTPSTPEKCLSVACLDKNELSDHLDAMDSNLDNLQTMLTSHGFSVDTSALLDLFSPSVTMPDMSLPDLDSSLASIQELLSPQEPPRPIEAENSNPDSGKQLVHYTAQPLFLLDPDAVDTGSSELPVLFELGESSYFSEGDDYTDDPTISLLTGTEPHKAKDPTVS

[13] = A cytotoxicity screen of small molecule inhibitors of the PhoP region in Salmonella typhi identified in the primary screen. [Related pubchem assays: 1850, 1864, 1985 ]; type: functional
Cytochrome P450 2D6 = Cytochrome P450 2D6 (Homo sapiens, UniProt P10635);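 also: CYP2D6 member of a cytochrome P450 panel assay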
Cytochrome P450 3A4 = Cytochrome P450 3A4 (Homo sapiens, UniProt P08684);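 also: CYP3A4 tested as one member of a cytochrome P450 panel screen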
Cytochrome P450 3A4, sequence (P08684 whole entry): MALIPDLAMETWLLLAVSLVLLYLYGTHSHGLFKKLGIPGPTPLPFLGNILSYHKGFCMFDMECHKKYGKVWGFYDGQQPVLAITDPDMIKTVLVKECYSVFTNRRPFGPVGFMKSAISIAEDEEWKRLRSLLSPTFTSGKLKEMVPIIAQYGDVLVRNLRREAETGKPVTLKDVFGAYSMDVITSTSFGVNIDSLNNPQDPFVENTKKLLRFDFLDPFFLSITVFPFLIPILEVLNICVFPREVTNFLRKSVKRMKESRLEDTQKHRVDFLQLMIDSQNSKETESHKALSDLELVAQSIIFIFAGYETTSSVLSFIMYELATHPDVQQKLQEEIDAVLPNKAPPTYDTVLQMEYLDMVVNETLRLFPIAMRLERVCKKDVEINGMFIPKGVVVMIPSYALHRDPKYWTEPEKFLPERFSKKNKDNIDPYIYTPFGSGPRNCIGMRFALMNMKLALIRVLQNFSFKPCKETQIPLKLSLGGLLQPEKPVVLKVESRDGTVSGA

T4 sequence (P49327 whole entry, the tested form may be a part): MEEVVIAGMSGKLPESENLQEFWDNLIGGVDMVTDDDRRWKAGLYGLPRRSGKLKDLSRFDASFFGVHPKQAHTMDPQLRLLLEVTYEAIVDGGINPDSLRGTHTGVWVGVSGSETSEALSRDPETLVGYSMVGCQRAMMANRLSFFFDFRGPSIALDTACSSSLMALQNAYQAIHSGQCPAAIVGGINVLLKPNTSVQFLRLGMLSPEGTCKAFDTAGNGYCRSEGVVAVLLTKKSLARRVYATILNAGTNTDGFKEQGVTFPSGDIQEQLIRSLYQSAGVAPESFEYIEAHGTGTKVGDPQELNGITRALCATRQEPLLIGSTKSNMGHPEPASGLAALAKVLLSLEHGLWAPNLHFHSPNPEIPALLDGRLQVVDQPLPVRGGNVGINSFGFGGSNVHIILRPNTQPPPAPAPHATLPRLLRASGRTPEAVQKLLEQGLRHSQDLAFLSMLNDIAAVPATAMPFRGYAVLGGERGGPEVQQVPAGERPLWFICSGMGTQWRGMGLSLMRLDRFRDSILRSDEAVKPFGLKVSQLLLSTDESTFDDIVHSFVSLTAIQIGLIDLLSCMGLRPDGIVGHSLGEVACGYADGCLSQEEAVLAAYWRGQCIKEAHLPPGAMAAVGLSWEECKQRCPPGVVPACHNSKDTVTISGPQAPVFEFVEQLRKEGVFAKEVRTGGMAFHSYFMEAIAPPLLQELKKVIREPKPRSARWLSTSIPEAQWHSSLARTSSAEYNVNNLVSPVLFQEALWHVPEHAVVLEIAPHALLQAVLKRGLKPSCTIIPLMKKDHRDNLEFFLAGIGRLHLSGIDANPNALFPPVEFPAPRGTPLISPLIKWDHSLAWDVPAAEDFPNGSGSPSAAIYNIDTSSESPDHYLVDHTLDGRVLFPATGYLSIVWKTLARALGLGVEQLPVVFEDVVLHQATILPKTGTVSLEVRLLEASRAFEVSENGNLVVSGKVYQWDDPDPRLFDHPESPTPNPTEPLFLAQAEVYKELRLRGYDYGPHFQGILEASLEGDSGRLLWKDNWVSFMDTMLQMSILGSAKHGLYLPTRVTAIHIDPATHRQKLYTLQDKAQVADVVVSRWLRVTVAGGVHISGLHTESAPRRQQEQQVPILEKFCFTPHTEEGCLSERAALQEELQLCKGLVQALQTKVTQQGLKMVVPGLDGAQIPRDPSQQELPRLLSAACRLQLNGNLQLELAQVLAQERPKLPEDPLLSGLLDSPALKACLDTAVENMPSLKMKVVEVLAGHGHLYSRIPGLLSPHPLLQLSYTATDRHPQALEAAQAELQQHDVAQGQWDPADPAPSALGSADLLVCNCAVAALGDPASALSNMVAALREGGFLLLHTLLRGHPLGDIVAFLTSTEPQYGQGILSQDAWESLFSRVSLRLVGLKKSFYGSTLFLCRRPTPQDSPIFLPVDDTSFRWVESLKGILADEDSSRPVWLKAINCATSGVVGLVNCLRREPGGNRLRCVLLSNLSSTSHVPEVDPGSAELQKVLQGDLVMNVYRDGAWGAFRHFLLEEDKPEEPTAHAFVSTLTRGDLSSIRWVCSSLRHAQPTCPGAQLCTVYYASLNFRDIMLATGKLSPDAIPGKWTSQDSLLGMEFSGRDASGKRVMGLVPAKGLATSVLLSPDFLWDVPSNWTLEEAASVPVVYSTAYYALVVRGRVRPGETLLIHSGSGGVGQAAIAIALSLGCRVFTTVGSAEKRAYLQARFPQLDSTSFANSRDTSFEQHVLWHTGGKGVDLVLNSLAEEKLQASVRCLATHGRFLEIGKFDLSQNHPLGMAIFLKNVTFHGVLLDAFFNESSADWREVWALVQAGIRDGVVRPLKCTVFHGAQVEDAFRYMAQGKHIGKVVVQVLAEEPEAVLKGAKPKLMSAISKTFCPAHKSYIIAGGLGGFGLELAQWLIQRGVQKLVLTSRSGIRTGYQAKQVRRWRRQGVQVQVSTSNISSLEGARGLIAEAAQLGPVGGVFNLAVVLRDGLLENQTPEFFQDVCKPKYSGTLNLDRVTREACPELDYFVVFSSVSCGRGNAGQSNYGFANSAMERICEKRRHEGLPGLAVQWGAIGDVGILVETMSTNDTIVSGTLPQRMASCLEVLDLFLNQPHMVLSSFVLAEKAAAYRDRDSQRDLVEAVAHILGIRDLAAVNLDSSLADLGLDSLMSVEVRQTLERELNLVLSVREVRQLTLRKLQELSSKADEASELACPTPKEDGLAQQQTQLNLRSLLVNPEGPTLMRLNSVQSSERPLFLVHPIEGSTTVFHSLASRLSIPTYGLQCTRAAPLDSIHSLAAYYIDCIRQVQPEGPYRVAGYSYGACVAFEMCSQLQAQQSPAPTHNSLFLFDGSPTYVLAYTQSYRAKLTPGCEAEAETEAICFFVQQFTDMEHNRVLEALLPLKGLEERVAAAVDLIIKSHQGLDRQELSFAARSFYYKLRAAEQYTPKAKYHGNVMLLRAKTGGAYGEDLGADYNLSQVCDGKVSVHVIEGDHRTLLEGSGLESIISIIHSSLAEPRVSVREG
Induced myeloid leukemia cell differentiation protein Mcl-1, sequence (Q07820 whole entry): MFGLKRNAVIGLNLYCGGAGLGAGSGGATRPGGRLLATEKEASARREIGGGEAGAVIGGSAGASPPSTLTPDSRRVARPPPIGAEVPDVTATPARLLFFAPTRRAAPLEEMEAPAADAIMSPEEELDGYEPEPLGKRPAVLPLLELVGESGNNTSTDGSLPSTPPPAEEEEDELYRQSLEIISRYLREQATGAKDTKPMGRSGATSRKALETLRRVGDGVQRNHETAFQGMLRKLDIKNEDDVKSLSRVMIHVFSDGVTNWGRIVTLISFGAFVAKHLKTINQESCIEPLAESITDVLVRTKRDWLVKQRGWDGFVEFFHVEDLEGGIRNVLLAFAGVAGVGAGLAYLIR
Cytochrome P450 2D6, sequence (P10635 whole entry): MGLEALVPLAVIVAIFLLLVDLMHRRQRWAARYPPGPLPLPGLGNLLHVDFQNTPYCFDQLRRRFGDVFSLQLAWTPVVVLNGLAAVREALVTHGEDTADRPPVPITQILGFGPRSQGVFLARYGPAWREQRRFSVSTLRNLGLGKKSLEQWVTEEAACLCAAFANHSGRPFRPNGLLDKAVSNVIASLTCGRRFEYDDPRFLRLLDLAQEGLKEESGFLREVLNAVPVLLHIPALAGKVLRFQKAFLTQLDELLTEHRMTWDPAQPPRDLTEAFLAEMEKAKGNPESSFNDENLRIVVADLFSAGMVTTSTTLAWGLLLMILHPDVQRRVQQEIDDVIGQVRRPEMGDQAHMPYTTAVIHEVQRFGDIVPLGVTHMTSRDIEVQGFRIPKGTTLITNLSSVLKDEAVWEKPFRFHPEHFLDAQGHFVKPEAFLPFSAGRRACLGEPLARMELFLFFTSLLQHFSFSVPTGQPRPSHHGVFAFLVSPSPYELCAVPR

For `Fc1ccc(C2Nc3cccc4cccc(c34)N2)cc1`, the AC50 [1] was 16.4 µM (active).
In the case of `Nc1cc2c(cc1[N+](=O)[O-])OCO2`, the IC50 [2] is reported as 5.21 µM (active).
For `COc1cc(C2C(=O)c3ccccc3C2=O)ccc1O`, the AC50 [1] was 3.44 µM (active) and the IC50 [3] was 16.1 µM (active).
For `CCOC(=O)C1=C(c2ccccc2)NC(=O)NC1c1ccc(O)c(Cl)c1` (stereo not given), the EC50 (cells [4]) was > 350 µM (not active), the EC50 (cells [5]) was > 350 µM (not active) and the CC50 (Vero) was 22.5 µM (active).
With `CCC(C)(C)n1nnnc1C(c1ccc(O)c(OC)c1)N1CCc2ccccc2C1` (stereo not given) the IC50 [2] was 6.3 µM (active).
With `COCCCn1c(N)c(C(=O)Nc2ccccc2)c2nc3ccccc3nc21` the EC50 [6] was 16.9 µM (active), the EC50 (Streptokinase A) was > 150 µM (not active) and the EC50 (Streptococcus) was 32.8 µM (active). The CC50 (Vero) was > 25 µM (active).
For `COc1ccc(OC)c(/C=C2\SC(=S)N(Cc3cccnc3)C2=O)c1`, the CC50 (Vero) was 14.8 µM (active).
With `C[C@@H]1CN([C@@H](C)CO)C(=O)Cc2cc(NC(=O)Nc3ccc(F)cc3)ccc2O[C@@H]1CN(C)Cc1ccc(Cl)c(Cl)c1` the AC50 [7] was 3.42 µM (active).
With `Cn1c(=O)c2cc3c(nc2n(C)c1=O)CC(c1ccccc1)CC3=O` (stereo not given) the IC50 [8] was > 47.1 µM (inactive), the EC50 [9] was > 53 µM (inactive) and the IC50 (Fatty acid synthase [10]) was 10.5 µM (active). The IC50 (Fatty acid synthase [11]) was 14.5 µM (active).
With `Cc1noc(NS(=O)(=O)c2ccc(NC(=O)c3oc4ccc(F)cc4c3C)cc2)c1C` the EC50 [12] was > 260 µM (inactive) and the AC50 [1] was 9.87 µM (active).
With `O=C1SC(c2ccccc2)=C/C1=C\N1CCCCC1` the EC50 [13] was > 50 µM (active), the AC50 [1] was 2.83 µM (active) and the IC50 [3] was 45.9 µM (active). For the same molecule, the AC50 (Cytochrome P450 2D6) was 25.1 µM (inconclusive) and the AC50 (Cytochrome P450 3A4) was 25.1 µM (inconclusive).
